Tests used:
Assay type in all cases: in vitro ADME
[1] = Caco-2 permeability assay; settings: human; for recovery at 90 min, 10 µM / efflux ratio at 90 min, 10 µM: Caco-2, pH 7.4; for Papp A→B at 90 min, 10 µM: pH 7.4, Caco-2, AB
Procedure: Caco-2 cells were cultured in 75 cm^2 flasks to 80-90% confluence according to the ATCC and Millipore recommendations (Arena A. et al., 2003) in humidified atmosphere at 37° C. and 5% CO2. Cells were detached with Trypsin/EDTA solution and resuspended in the cell culture medium to a final concentration of 2×10^5 cells/ml. 500 μl of the cell suspension was added to each well of HTS 24-Multiwell Insert System and 1000 μl of prewarmed complete medium was added to each well of the feeder-plate. Caco-2 cells were incubated in Multiwell Insert System for 21 days before the transport experiments. The medium in filter plate and feeder tray was refreshed every other day. After 21 days of the cell growth, the integrity of the monolayer was verified by measuring the transepithelial electrical resistance (TEER) for every well using the Millicell-ERS system ohm meter. The final TEER values were within the range 150-600 Ω×cm^2 (Srinivasan B. et al., 2015) as required for the assay conditions. 24-well insert plate was removed from its feeder plate and placed in a new sterile 24-well transport analysis plate. The inserts were washed with PBS after medium aspiration. To determine the rate of compounds transport in apical (A)-to-basolateral (B) direction, 300 μL of the test compound dissolved in transport buffer at 10 μM (HBSS, 25 mM HEPES, pH=7.4) was added into the filter wells; 1000 μL of buffer (HBSS, 25 mM HEPES, pH=7.4) was added to transport analysis plate wells. Propranolol, Atenolol, Quinidine and Digoxin were used as reference compounds. The plates were incubated for 90 min at 37° C. under continuous shaking at 50 rpm. 75 μL aliquots were taken from the donor and receiver compartments for LC-MS/MS analysis. All samples were mixed with 2 volumes of acetonitrile followed by protein sedimentation by centrifuging at 10000 rpm for 10 minutes. Supernatants were analyzed using the HPLC system coupled with tandem mass spectrometer. The apparent permeability (Papp) was calculated for Caco-2 permeability assay using the following equation:
• VA=volume of transport buffer in acceptor well • Area=surface area of the insert (equals to effective growth area of the insert −0.31 sq.cm) • Time=time of the assay • [drug]acc=concentration of test compound in acceptor well • [drug]initial,d=initial concentration of test compound in a donor well • Papp is expressed in 10^−6 cm/sec.
The % recovery can be useful in interpreting the Caco-2 data. If the recovery is very low, this may indicate poor solubility, binding of the compound to the test plate materials, metabolism by the Caco-2 cells, or accumulation of the compound in the cell monolayer. The % recovery was calculated using the following equation:
• Vacc=volume of compound solution in acceptor well […] • Vd=volume of compound solution in […] • Cacc=concentration of test compound in acceptor well (μM) • Cinitial,d=initial concentration of test compound in a donor well (μM)

[2] = Metabolic stability in hepatocytes, mouse; settings: hepatocytes (cryopreserved), read-out: Mouse Clint (μL/min/10^6 cells)
Procedure: (§1) The aim of this assay is to determine the metabolic stability of the compound in hepatocytes (cryopreserved) of different species (mouse CD1, rat Sprague Dawley, dog Beagle). Low hepatocyte stability may result in the formation of unwanted metabolites, high clearance, and therefore is not desirable. The decrease in parent was assessed by measuring the percentage remaining by LC-MS/MS analysis. The batches of hepatocytes were tested for quality control using Testosterone, Umbelliferone and Caffeine as reference compounds.
A 10 mM stock solution of test compound in DMSO was first diluted in DMSO to 3 mM, and then in modified Krebs-Henseleit buffer (Sigma, K3753) to 5 μM. This compound dilution was added to a suspension of pooled cryopreserved hepatocytes (BioIVT) at 37° C. under gentle shaking. Final reaction conditions were: 1 μM of test compound, <0.1% DMSO, 0.5 million viable hepatocytes/mL, and 75 μL incubation volume.
After 0, 10, 20, 45, 90, 120 and 180 min of incubation, the reaction was terminated with 3 volumes of MeCN:MeOH (2:1) containing diclofenac as analytical internal standard. Samples were mixed, centrifuged and the supernatant analyzed by LC-MS/MS (systems API4000). The instrument responses (ratios of test compound and internal standard peak areas) were referenced to the zero time point samples (considered as 100%) in order to determine the percentage of compound remaining. Plots of percentage compound remaining were used to determine the intrinsic clearance in the hepatocyte incubations.
(§2) Testosterone (1 μM) and Umbelliferone (1 μM) and Caffeine (1 μM) were used as reference compounds, being unstable and stable compounds respectively. If the hepatocyte stability values for these controls are not in the range determined by the historical data, the assay is not validated.

[3] = Metabolic stability in hepatocytes, dog; settings: Beagle, pooled cryopreserved hepatocytes, read-out: Dog Clint (μL/min/10^6 cells)
Procedure: as §1
A 10 mM stock solution of test compound in DMSO was first diluted in DMSO to 3 mM, and then in modified Krebs-Henseleit buffer (Sigma, K3753) to 5 μM. This compound dilution was added to a suspension of pooled cryopreserved hepatocytes (BioIVT) at 37° C. under gentle shaking. […]
After 0, 10, 20, 45, 90, 120 and 180 min of incubation, the reaction was terminated with 3 volumes of MeCN:MeOH (2:1) containing diclofenac as analytical internal standard. Samples were mixed, centrifuged and the supernatant analyzed by LC-MS/MS (systems API4000). […]
as §2

[4] = Caco-2 permeability assay; settings: human, pH 7.4; Caco-2, BA

Structure (SMILES) | recovery at 90 min, 10 µM [1] | Papp A→B at 90 min, 10 µM [1] | hepatocyte CLint [2] | hepatocyte CLint at 1 µM [3] | efflux ratio at 90 min, 10 µM [1] | Papp B→A at 90 min, 10 µM [4]
CC(C)Cc1ccc(-c2nn[nH]n2)c(N2CCN(Cc3nc4ccccc4c(=O)[nH]3)CC2)c1 [Compound A-31, 2-[[4-[5-isobutyl-2-(2H-tetrazol-5-yl)phenyl]piperazin-1-yl]methyl]-3H-quinazolin-4-one] | 77% | 28 nm/s | – | – | – | –
CC(C)Cc1ccc(-c2nn[nH]n2)c(N2CCN(Cc3cccnn3)CC2)c1 [Compound A-90, 3-[[4-[5-isobutyl-2-(2H-tetrazol-5-yl)phenyl]piperazin-1-yl]methyl]pyridazine] | 91% | < 34 nm/s | – | – | – | –
CC(C)Cc1cc(F)c(-c2nn[nH]n2)c(N2CCN(Cc3cccnn3)C(C)C2)c1 (stereo not shown) [Compound A-173, 3-[[4-[3-fluoro-5-isobutyl-2-(2H-tetrazol-5-yl)phenyl]-2-methyl-piperazin-1-yl]methyl]pyridazine] | – | – | 4 µL/min/1e6 cells | – | – | –
CC(C)Cc1cc(F)c(-c2nn[nH]n2)c(N2CCN(Cc3cccnn3)[C@@H](C)C2)c1 [Compound A-174, 3-[[(2S)-4-[3-fluoro-5-isobutyl-2-(2H-tetrazol-5-yl)phenyl]-2-methyl-piperazin-1-yl]methyl]pyridazine] | 90% | 1.5 nm/s | < 5.4 µL/min/1e6 cells | < 5.1 µL/min/1e6 cells | 16 | 24 nm/s
CCC1CN(c2cc(CC(C)C)cc(F)c2-c2nn[nH]n2)CCN1Cc1cccnn1 (stereo not shown) [Compound A-178, 3-[[2-ethyl-4-[3-fluoro-5-isobutyl-2-(2H-tetrazol-5-yl)phenyl]piperazin-1-yl]methyl]pyridazine] | 94% | 12 nm/s | 0.8 µL/min/1e6 cells | – | 7.2 | 86 nm/s
CCC1CN(Cc2cccnn2)CCN1c1cc(CC(C)C)cc(F)c1-c1nn[nH]n1 (stereo not shown) [Compound A-181, 3-[[3-ethyl-4-[3-fluoro-5-isobutyl-2-(2H-tetrazol-5-yl)phenyl]piperazin-1-yl]methyl]pyridazine] | – | – | 1 µL/min/1e6 cells | – | – | –
CC(C)Cc1cc(F)c(-c2nn[nH]n2)c(N2CC(C)N(Cc3cccnn3)CC2C)c1 (stereo not shown) [Compound A-183, 3-[[4-[3-fluoro-5-isobutyl-2-(2H-tetrazol-5-yl)phen-yl]-2,5-dimethyl-piperazin-1-yl]-methyl]pyridazine] | – | – | 2 µL/min/1e6 cells | – | – | –
CC(C)Cc1cc(F)c(-c2nn[nH]n2)c(N2CCN(Cc3ccccn3)[C@@H](C)C2)c1 [Compound A-217, (2S)-4-[3-fluoro-5-isobutyl-2-(2H-tetrazol-5-yl)phenyl]-2-methyl-1-(2-pyridylmethyl)piperazine] | – | – | – | < 5.1 µL/min/1e6 cells | – | –

Source: patent US20240368133A1, “Compounds for the Treatment of Pain, in Particular, Neuropathic Pain, and/or Other Diseases or Disorders that are Associated with AT2R and/or AT2R Mediated Signaling” (Confo Therapeutics N.V., priority 2021, published 2024)
